Measurements from patent publication US20090111778A1, “2-Keto-Oxazoles as Modulators of Fatty Acid Amide Hydrolase” (priority 2005, published 2009).
Counter-ions that a name gives are not always drawn.

Legend:
rat FAAH = target: T1, rat FAAH (Rattus norvegicus, UniProt P97612); assay: Assay Method 2: FAAH assay, hydrolysis of 3H-anandamide by homogenate of SK-N-MC cells transfected with rat FAAH; assay type: biochemical; details: T84 or transfected SK-N-MC cell homogenate, 3H-AEA tracer 80 nM, rt 1 h, pH 9
T1 construct: expressed in transfected cells
T1 sequence (P97612 1-579): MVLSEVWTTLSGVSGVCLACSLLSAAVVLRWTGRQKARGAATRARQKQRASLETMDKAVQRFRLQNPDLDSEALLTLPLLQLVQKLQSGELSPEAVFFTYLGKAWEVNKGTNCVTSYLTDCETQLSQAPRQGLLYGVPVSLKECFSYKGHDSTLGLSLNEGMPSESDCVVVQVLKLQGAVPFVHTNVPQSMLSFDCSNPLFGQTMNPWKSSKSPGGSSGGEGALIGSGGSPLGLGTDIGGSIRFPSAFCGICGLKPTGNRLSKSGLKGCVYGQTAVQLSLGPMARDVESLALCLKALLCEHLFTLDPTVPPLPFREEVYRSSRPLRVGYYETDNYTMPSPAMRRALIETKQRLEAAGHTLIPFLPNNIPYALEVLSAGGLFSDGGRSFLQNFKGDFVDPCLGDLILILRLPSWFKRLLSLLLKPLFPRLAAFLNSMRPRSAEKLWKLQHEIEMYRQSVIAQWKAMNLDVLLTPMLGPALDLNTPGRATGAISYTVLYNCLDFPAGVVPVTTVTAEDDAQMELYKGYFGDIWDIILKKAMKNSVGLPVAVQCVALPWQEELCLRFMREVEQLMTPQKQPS
Method in brief: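 Rat FAAH activity from homogenate of G418-selected, electroporated SK-N-MC clones was measured as release of radiolabelled ethanolamine from 3H-anandamide. After 1 h at rt, charcoal filtration retained substrate, and scintillation counting of the flow-through gave the read-out.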

human FAAH = target: T2, human FAAH (Homo sapiens, UniProt O00519); assay: Assay Method 1: FAAH assay, hydrolysis of 3H-anandamide by homogenate of SK-N-MC cells transfected with human FAAH; assay type: biochemical; details: human FAAH; T84 or transfected SK-N-MC cell homogenate; 3H-AEA tracer 80 nM; rt 1 h; pH 9; read-out: Assay 1 IC50
T2 construct: expressed in transfected cells
T2 sequence (O00519 1-579): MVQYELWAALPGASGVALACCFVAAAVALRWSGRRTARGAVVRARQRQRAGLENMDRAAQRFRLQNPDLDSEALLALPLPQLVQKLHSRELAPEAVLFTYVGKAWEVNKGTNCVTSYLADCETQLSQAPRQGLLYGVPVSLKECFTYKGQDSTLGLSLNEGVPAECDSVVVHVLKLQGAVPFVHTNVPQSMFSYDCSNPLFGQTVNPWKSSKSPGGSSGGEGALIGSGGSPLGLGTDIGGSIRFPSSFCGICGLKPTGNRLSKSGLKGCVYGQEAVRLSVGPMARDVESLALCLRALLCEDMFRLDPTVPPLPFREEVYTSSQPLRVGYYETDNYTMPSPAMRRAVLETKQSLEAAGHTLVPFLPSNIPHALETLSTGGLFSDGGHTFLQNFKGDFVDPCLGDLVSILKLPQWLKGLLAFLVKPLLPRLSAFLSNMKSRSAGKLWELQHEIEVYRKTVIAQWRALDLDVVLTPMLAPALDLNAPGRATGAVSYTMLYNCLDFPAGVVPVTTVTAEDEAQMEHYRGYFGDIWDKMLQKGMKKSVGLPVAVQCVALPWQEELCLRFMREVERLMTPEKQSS
Method in brief: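 Homogenate of SK-N-MC cells stably expressing human FAAH (G418-selected clones) incubated with compound and 80 nM [1-3H-ethanolamine]anandamide for 1 h at rt. Released 3H-ethanolamine separated from substrate by activated-charcoal filtration, then counted by scintillation.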

Compound | IC50 (rat FAAH) [nM] | IC50 (human FAAH) [nM]
CCCCCCCN1CCC(CCCC(=O)c2ncco2)CC1 [Example 126, 4-(1-Heptyl-piperidin-4-yl)-1-oxazol-2-yl-butan-1-one] | 810 | 23
CCCCCCCCCN1CCC(CCCC(=O)c2ncco2)CC1 [Example 127, 4-(1-Nonyl-Piperidin-4-yl)-1-oxazol-2-yl-butan-1-one] | 57 | 8
CC(C)(C)OC(=O)N1CCC(CCCC(=O)c2ncc(C(=O)O)o2)CC1 [Example 130, 4-[4-(5-Carboxy-oxazol-2-yl)-4-oxo-butyl]-piperidine-1-carboxylic acid tert-butyl ester] | 19 | 30
O=C(CCCC1CCN(Cc2cc(F)c(F)c(F)c2)CC1)c1ncco1 [Example 131, 1-Oxazol-2-yl-4-[1-(3,4,5-trifluoro-benzyl)-piperidin-4-yl]-butan-1-one] | 760 | 88
CC(C)c1ccc(CN2CCC(CCCC(=O)c3ncco3)CC2)cn1 [Example 132, 4-[1-(6-Isopropyl-pyridin-3-ylmethyl)-piperidin-4-yl]-1-oxazol-2-yl-butan-1-one] | 950 | 52
O=C(CCCC1CCN(Cc2ccc(Cl)c(C(F)(F)F)c2)CC1)c1ncco1 [Example 133, 4-[1-(4-Chloro-3-trifluoromethyl-benzyl)-piperidin-4-yl]-1-oxazol-2-yl-butan-1-one] | 2000 | 460
O=C(CCCC1CCN(Cc2ccc(OC3CCCCC3)cc2)CC1)c1ncco1 [Example 134, 4-[1-(4-Cyclohexyloxy-benzyl)-piperidin-4-yl]-1-oxazol-2-yl-butan-1-one] | 119 | 119
CC(C)Oc1cccc(CN2CCC(CCCC(=O)c3ncco3)CC2)c1 [Example 135, 4-[1-(3-Isopropoxy-benzyl)-piperidin-4-yl]-1-oxazol-2-yl-butan-1-one] | 9 | 5
O=C(CCCC1CCN(Cc2cccc(OC3CCCCC3)c2)CC1)c1ncco1 [Example 136, 4-[1-(3-Cyclohexyloxy-benzyl)-piperidin-4-yl]-1-oxazol-2-yl-butan-1-one] | 2 | 1
O=C(CCCC1CCN(Cc2ccc(C(F)(F)F)c(F)c2)CC1)c1ncco1 [Example 137, 4-[1-(3-Fluoro-4-trifluoromethyl-benzyl)-piperidin-4-yl]-1-oxazol-2-yl-butan-1-one] | 380 | 10
O=C(CCCC1CCN(Cc2ccc(-c3ccccc3)c(F)c2)CC1)c1ncco1 [Example 138, 4-[1-(2-Fluoro-biphenyl-4-ylmethyl)-piperidin-4-yl]-1-oxazol-2-yl-butan-1-one] | 113 | 71
CC(C)(C)c1ccc(CN2CCC(CCCC(=O)c3ncco3)CC2)cn1 [Example 139, 4-[1-(6-tert-Butyl-pyridin-3-ylmethyl)-piperidin-4-yl]-1-oxazol-2-yl-butan-1-one] | 550 | 50
CC(C)c1cccc(CN2CCC(CCCC(=O)c3ncco3)CC2)c1 [Example 140, 4-[1-(3-Isopropyl-benzyl)-piperidin-4-yl]-1-oxazol-2-yl-butan-1-one] | 3 | 1
O=C(CCCC1CCN(Cc2ccc(-n3ccnc3)cc2)CC1)c1ncco1 [Example 141, 4-[1-(4-Imidazol-1-yl-benzyl)-piperidin-4-yl]-1-oxazol-2-yl-butan-1-one] | 1500 | 84
CC(c1ccccc1)N1CCC(CCCC(=O)c2ncco2)CC1 (centres unmarked) [Example 142, 1-Oxazol-2-yl-4-[1-(1-phenyl-ethyl)-piperidin-4-yl]-butan-1-one] | 3000 | 190
O=C(O)c1cnc(C(=O)CCCC2CCN(Cc3cccc(-c4ccccc4)c3)CC2)o1 [Example 143, 2-[4-(1-Biphenyl-3-ylmethyl-piperidin-4-yl)-butyryl]-oxazole-5-carboxylic acid trifluoroacetic acid salt] | 3 | 14
